The text below walks through data of patent US20110021471A1, “REDUCING Abeta42 LEVELS AND Abeta AGGREGATION” (priority 2007, published 2011).

By pEC50 is commonly meant the negative decadic logarithm of the EC50, by convention in mol/L.

Molecules are shown by their SMILES. pEC50: −log10 of the molar value. Where two headings read alike, the source gives them in different places.

One test addresses T1, APP-CTF (Homo sapiens, UniProt P05067).
T1 construct: this protein was designated α-secretase-derived APP CTF (CTF83) on the basis of molecular weight; expressed in transfected cells
Briefly: Photoaffinity labelling of APP and APP CTF in H4 cell membrane fractions and competition. The format is binding. The settings on record: photoprobe 25 μM, competitor 200 μM. On the procedure:
Photoaffinity labelling. All experiments used the following general protocol. Samples (recombinant or synthetic peptides, cell lysates and membrane preparations) were exposed in borosilicate test tubes to ultraviolet light (350 nm) in a Rayonet Photoreactor R100 (RPR-3500 lamps, Southern New England Ultra Violet Company) in a cold room (4° C.) for 30 minutes or as otherwise noted. Crosslinked samples were analyzed by ELISA for biotin incorporation, or analyzed directly by SDS-PAGE (Criterion-XT, Bio-Rad), or after precipitation with streptavidin ultralink plus beads (Pierce). After immunblotting, proteins were detected using chemiluminesence (ECL Plus, GEHealthcare) or near-infrared fluorescence (LiCor Odyssey). Full-length APP and APP CTFs (CTF83, CTF99) were detected with CT20, a rabbit polyclonal antibody against the C-terminus of APP. Biotin was detected with an affinity-purified rabbit polyclonal antibody (Bethyl). Cell-based screens for amyloid-β modulation.

In the next test the target is T2, APP(C100)-Flag (Homo sapiens, UniProt P05067).
T2 construct: APP(C100)-Flag, comprising the 99 C-terminal residues of APP plus a methionine at the N-terminus; added methionine (N)
In words: Photoaffinity labelling of APP(C100)-Flag and competition. In kind it is binding. On the procedure: FIG. 1. […] The top panel is for anti-biotin staining; the middle panel is for anti-FLAG staining; and the bottom panel is an overlay of anti-biotin (red and anti-Flag green, LiCor Odyssey imaging). (E) Same samples as in D, but analyzed using an ELISA. Following crosslinking, C100Flag and N100 Flag were captured using anti-FLAG plate, and biotin incorporation was measured using streptavidin-HRP. […] Fen-B (50 μM) was crosslinked to Aβ (10 μM). Biotin labeling was measured following capture with an anti-Aβ1-16 antibody and detection with streptavidin-HRP.
Photoaffinity labelling. All experiments used the following general protocol. Samples (recombinant or synthetic peptides, cell lysates and membrane preparations) were exposed in borosilicate test tubes to ultraviolet light (350 nm) in a Rayonet Photoreactor R100 (RPR-3500 lamps, Southern New England Ultra Violet Company) in a cold room (4° C.) for 30 minutes or as otherwise noted. Crosslinked samples were analyzed by ELISA for biotin incorporation, or analyzed directly by SDS-PAGE (Criterion-XT, Bio-Rad), or after precipitation with streptavidin ultralink plus beads (Pierce). After immunblotting, proteins were detected using chemiluminesence (ECL Plus, GEHealthcare) or near-infrared fluorescence (LiCor Odyssey). Full-length APP and APP CTFs (CTF83, CTF99) were detected with CT20, a rabbit polyclonal antibody against the C-terminus of APP. Biotin was detected with an affinity-purified rabbit polyclonal antibody (Bethyl). Cell-based screens for amyloid-β modulation. Human H4 neuroglioma cells (American Type Culture Collection, ATCC) expressing wild-type APP695 protein or CTF105 fused to secreted alkaline phosphatase which is efficiently processed to APP CTFs (CTF83, CTF99) and produce high levels of amyloid-β, were used for the cell-based screens as previously described. Cells were incubated for 5-6 hours in the presence of the various compounds in Opti-Mem culture medium containing 1% fetal bovine serum. Compounds were dissolved in dimethylsulphoxide (DMSO; 0.5% final concentration) and diluted 200-fold. Media was analyzed for various amyloid-β species (40, 42 and total) using ELISAs as described herein. The EC50 values for changes in amyloid-β species were calculated by fitting sigmoid dose-response curves using nonlinear regression in Prism (GraphPad) and are shown as values±s.e.m. Statistical analysis. Data are presented as either percentage control or mean±s.e.m. Results were analyzed using Prism (Graph Pad) with t-tests or one-way analysis of variance analyses (ANOVAs) with Dunnett's post-hoc correction for comparison of multiple samples to a control. Statistical significance is shown as P,0.05 (one asterisk), P,0.01 (two asterisks) or P,0.001 (three asterisks).
The ability of a purified, recombinant Flag-tagged γ-secretase substrate derived from APP (APP(C100)-Flag, comprising the 99 C-terminal residues of APP plus a methionine at the N-terminus) to be labeled by Fen-B and Flurbi-BpB was tested.

In test [1] the test system is Human H4 neuroglioma cells expressing wild-type APP695 protein or CTF105. In words: Cell-based screens for amyloid-β modulation (H4 cells, ELISA). The settings on record: for pEC50: Homo sapiens, cellular dose-response. The source says: Photoaffinity labelling. All experiments used the following general protocol. […] Cell-based screens for amyloid-β modulation. […] Statistical analysis.

For another test, the target named is γ-secretase (Homo sapiens, UniProt P49768). In words: GSM activity of compounds that bind Aβ or Aβ amyloid (cell-based or cell-free γ-secretase assays, FIG. 12). The settings on record: two doses (10 and 100 μM). As for the experimental part:
A literature search was performed to identify compounds reported to bind to the Aβ peptide directly or amyloid. These candidates were initially tested in cell-based assays or cell-free in vitro γ-secretase assays at two doses (10 and 100 μM).
Finally, X-34 was tested for its ability to modulate Aβ42 amounts in an APP transgenic mouse (Tg2576).

T2 sequence (P05067 672-770 limits assumed): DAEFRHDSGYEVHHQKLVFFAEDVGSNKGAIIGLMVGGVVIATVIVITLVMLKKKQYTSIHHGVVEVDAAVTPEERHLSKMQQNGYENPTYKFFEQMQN
T1 sequence (P05067 688-770 limits assumed): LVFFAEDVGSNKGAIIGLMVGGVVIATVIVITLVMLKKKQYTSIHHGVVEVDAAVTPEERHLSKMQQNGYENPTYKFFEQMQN

Turning to `O=C(O)c1cc(C=Cc2ccc(C=Cc3ccc(O)c(C(=O)O)c3)cc2)ccc1O` [X-34, 1,4-bis(3-carboxy-4-hydroxyphenylethenyl)-benzene], the “competition of APP-CTF labeling by Fen-B and Flurbi-BpB” value on APP-CTF is “decreases labeling of APP-CTF”. Further, the “competition for binding of APP(C100)-Flag by Fen-B and Flurbi-BpB” value at APP(C100)-Flag is recorded as “competed”. Further, the “total amyloid-β amounts” value in test [1] is given as “did not decrease”. In addition, the Aβ42 levels result in test [1] (H4 cells expressing APP) is “decrease”. The pEC50 was 4.22 in test [1] (read-out: EC50, lowering of Aβ40) and 4.86 in test [1] (read-out: EC50, lowering of Aβ42). Besides, the GSM activity result on γ-secretase is “Aβ42-lowering”.
